According to patent US8414885B2, “Methods and compositions for treating cancer” (priority 2009, dated 2013):
Peptide text beside a SMILES is read from it. * marks the point of attachment. Cbz = O=C(OCc1ccccc1)*; CH2F = FC*

Tested on: melanoma cultures (A2058, MeWo, SM, A375)
Assay: Virus growth by plaque assay (burst size) in melanoma cultures
Type: cell-based, human
Settings: delta-PK infected melanoma cultures
Method: FIG. 3. Delta-PK is a growth-restricted replication competent oncolytic virus. A. Vero cells were infected with HSV-2, delta-PK, or HSV-2(R) (moi=0.5) in serum-free medium and virus titers were determined by plaque assay. Results are expressed as mean pfu/cell (burst size). B. A2058, MeWo, SM, A375 and Wi-38 cells were infected with delta PK and examined for virus growth. […] C. Delta-PK infected A2058 and WI-38, cells were stained with Alexafluor-488 labeled ICP10 and Alexafluor-594 labeled VP5 antibodies in double immunofluorescence. Cells were counted in 3 randomly selected fields (≧250 cells) and the % staining cells calculated relative to total cells identified by DAPI staining. Quantitative results are shown for A2058 cell at 4-72 hrs p.i., and for WI-38 cells at 48 hrs p.i. Similar results were obtained for the partially purified virus.
To measure virus replication in culture, cells were infected at a multiplicity of infection (moi) of 0.5 pfu/cell. Adsorption was for 1 hr at 4 degrees C. (synchronized infection). […] Virus titers were determined by plaque assay on Vero cells and the results are expressed as mean pfu/cell (burst size), as described (Li B, Smith C C, Laing J M, Gober M D, Liu L, Aurelian L. Overload of the heat-shock protein H11/HspB8 triggers melanoma cell apoptosis through activation of transforming growth factor-beta-activated kinase 1. Oncogene 2007; 26: 3521-3531). […]

With `O=C(O)/C(S)=C/c1ccc(I)cc1` [PD150606] the “effect of inhibitor on virus growth” value was “neither PD150606, nor z-VAD-fmk had any effect”.

In the case of `COC(=O)C[C@H](NC(=O)[C@H](C)NC(=O)[C@@H](NC(=O)OCc1ccccc1)C(C)C)C(=O)CF` [z-VAD-fmk, benzyloxcarbonyl-Val-Ala-Asp-fluormethyl ketone] (Cbz-Val-Ala-Asp(OMe)-CH2F), the “effect of inhibitor on virus growth” value is reported as “neither PD150606, nor z-VAD-fmk had any effect”.
